Consider 4 substances from patent US10422788B2, “Profiling peptides and methods for sensitivity profiling” (Tolero Pharmaceuticals, Inc., priority 2016, dated 2019).

For one experiment, the system named is THP-1. As to conditions: published NOXA test results; cited from earlier work.
Another experiment deals with OCI-AML3. As to conditions: published NOXA test results; cited from earlier work.
In another experiment the test system is KG-1. As to conditions: published NOXA test results; cited from earlier work.
The subject of another experiment is HL-60. As to conditions: published NOXA test results; cited from earlier work.
The subject of another experiment is U-937. As to conditions: published NOXA test results; cited from earlier work.
A further experiment has as its system MOLM-13. As to conditions: published NOXA test results; cited from earlier work.
A further experiment deals with subject samples. Nature of the experiment: Reference Lab NOXA priming assay on subject samples. It counts as cell-based, human.
A further experiment concerns MV4-11. As to conditions: published NOXA test results; cited from earlier work.
The test system of the next experiment is OCI-AML3 cells. Nature of the experiment: Titration of concentrations of profiling peptides, Mcl-1 dependency percentage (JC-1). As to conditions: profiling peptide at 10 μM; FIG. 2. It is filed as cell-based. How it is done:
Briefly, frozen OCI-AML3 cell stocks were rapidly thawed, and cell viability was determined by Trypan Blue exclusion. Cells were washed in PBS and resuspended in DTEB (or MEB) buffer (135 mM Trehalose [or 150 mM Mannitol], 10 mM HEPES, 50 mM KCl, 20 μM EGTA, 20 μM EDTA, 0.1% BSA, 5 mM succinate). The profiling peptides and NOXA (SEQ ID NO:16) were reconstituted in water to make working solutions allowing for final concentrations of: SEQ ID NO:1 (100 μM), SEQ ID NO:1 (30 μM), SEQ ID NO:1 (10 μM), and NOXA (100 μM). […] Profiling peptides, controls, or NOXA (for comparison purposes) were first added to a microplate. […] Fluorescence signal of each well was assessed using an Envision multilabel plate reader at Ex475/Em530 and Ex530/Em595.
Statistical Analysis: For each peptide, the Mcl-1 dependency percentage was calculated using the following formula that determines the dependency:
[formula] Where PC is the fluorescence intensity of the positive control, NC is the fluorescence intensity of the negative control, and Pep is the fluorescence intensity of the peptide at the noted concentration.

The test system of experiment [1] is MOLM-13 cells. Nature of the experiment: Whole cell assay, JC-1 mitochondrial potential, cells lacking digitonin (FIG. 1B). It counts as cell-based. As to conditions: 100 μM peptide, no digitonin. How it is done: Briefly, frozen MOLM-13 and OCI-AML3 cell stocks were rapidly thawed, and cell viability was determined by Trypan Blue exclusion. Cells were washed in PBS and resuspended in DTEB (or MEB) buffer (135 mM Trehalose [or 150 mM Mannitol], 10 mM HEPES, 50 mM KCl, 20 μMI EGTA, 20 μM EDTA, 0.1% BSA, and 5 mM succinate). The profiling peptides and NOXA ([…]; SEQ ID NO:16) were reconstituted in water to make working solutions allowing for final concentrations of: SEQ ID NO:1 (100 μM), SEQ ID NO:14 (100 μM), SEQ ID NO:15 (100 μM), and NOXA (100 μM). […] Profiling peptides, controls, or NOXA (for comparison purposes) were first added to a microplate. Cells (4×10^5) resuspended in DTEB or MEB buffers were then added to a staining solution ([…], 40 μM JC-1, 1 M 2-mercaptoethanol, DTEB or MEB buffer), before being added to the wells of the microplate in the above (for non-digitonin-treated samples, digitonin was not added to the staining solution above). The mixture was then incubated for up to 2 hours at 30° C., in order for cell permeabilization (if needed), delivery of peptides or compounds, and mitochondrial depolarization to occur. Fluorescence signal of each well was assessed using an Envision multilabel plate reader at Ex475/Em530 and Ex530/Em595. […]

The subject of experiment [2] is MOLM-13 cells. Nature of the experiment: Addition of ryanodine to the Example 5 assay. As to conditions: 20 nM Ryanodine; Tat-mediated calcium release from the ER; FIG. 4. It counts as cell-based.
Where [3] appears, read: Sample # 17, subject treated with FLAM, complete response.
The mark [4] stands for this setting: Sample # 18, subject treated with FLAM, complete response.
[5] abbreviates: Sample # 19, subject treated with FLAM, complete response.

“AELPPEFAAQLRKIGDKVYC (NOXA sequence) [standard NOXA BH3 peptide, used for comparison]”: the “NOXA Priming %” value with THP-1 is listed as 11.28%; in the experiment with OCI-AML3 it was 21.96%; with KG-1, 12.39%; in the experiment on HL-60, 7.60%; in the experiment on U-937, 24.35%; with MOLM-13, 19.24%. The “NOXA Priming %” value with MV4-11 is recorded as 12.84%. Moreover, the “Reference Lab NOXA Priming %” value with subject samples (Sample # 1) was 14.0%; in the experiment with subject samples (Sample # 2), 60.0%; in the experiment with subject samples (Sample # 3), 16.0%; with subject samples (Sample # 4) it was 0.0%; with subject samples (Sample # 5) it was 94.4%; with subject samples (Sample # 6) it was 48.6%. Also, the “Reference Lab NOXA Priming %” value in the experiment with subject samples (Sample # 7) is 0.0%; in the experiment with subject samples (Sample # 8), 23.5%; with subject samples (Sample # 9) it was 79.1%; in the experiment with subject samples (Sample # 10), 38.0%; in the experiment with subject samples (Sample # 11), 43.3%; in the experiment with subject samples (Sample # 12) it was 0.0%. The “Reference Lab NOXA Priming %” value with subject samples (Sample # 13) is given as 0.0%; in the experiment on subject samples (Sample # 14), 0.0%; in the experiment on subject samples (Sample # 15), 7.0%; with subject samples (Sample # 16) it was 7.0%; in the experiment on subject samples (setting [3]), 10.89%; with subject samples (setting [4]), 14.43%. Further, the “Reference Lab NOXA Priming %” value with subject samples (setting [5]) is recorded as 0.0%. Moreover, the “Reference Lab NOXA Result (Pos/Neg)” value with subject samples (Sample # 1) is reported as “Neg (Concordance based on cutoff of ≥40% MCL-1 Dependency for both methods.)”; in the experiment on subject samples (Sample # 2), “Pos (Concordance based on cutoff of ≥40% MCL-1 Dependency for both methods.)”; with subject samples (Sample # 3), “Neg (Concordance based on cutoff of ≥40% MCL-1 Dependency for both methods.)”; in the experiment with subject samples (Sample # 4), “Neg (Concordance based on cutoff of ≥40% MCL-1 Dependency for both methods.)”; with subject samples (Sample # 5), “Pos (Concordance based on cutoff of ≥40% MCL-1 Dependency for both methods.)”; in the experiment on subject samples (Sample # 6), “Pos (Concordance based on cutoff of ≥40% MCL-1 Dependency for both methods.)”. The “Reference Lab NOXA Result (Pos/Neg)” value in the experiment with subject samples (Sample # 7) was “Neg (Concordance based on cutoff of ≥40% MCL-1 Dependency for both methods.)”; with subject samples (Sample # 8), “Neg (Concordance based on cutoff of ≥40% MCL-1 Dependency for both methods.)”; in the experiment on subject samples (Sample # 9) it was “Pos (Concordance based on cutoff of ≥40% MCL-1 Dependency for both methods.)”; with subject samples (Sample # 10), “Neg (Concordance based on cutoff of ≥40% MCL-1 Dependency for both methods.)”; in the experiment on subject samples (Sample # 11), “Pos (Concordance based on cutoff of ≥40% MCL-1 Dependency for both methods.)”; in the experiment on subject samples (Sample # 12), “Neg (Concordance based on cutoff of ≥40% MCL-1 Dependency for both methods.)”. The “Reference Lab NOXA Result (Pos/Neg)” value in the experiment on subject samples (Sample # 13), with subject samples (Sample # 14), in the experiment with subject samples (Sample # 15), in the experiment with subject samples (Sample # 16), in the experiment with subject samples (setting [3]) and in the experiment on subject samples (setting [4]) was “Neg (Concordance based on cutoff of ≥40% MCL-1 Dependency for both methods.)” each time. Moreover, in the experiment with subject samples (setting [5]), the “Reference Lab NOXA Result (Pos/Neg)” value is reported as “Neg (Concordance based on cutoff of ≥40% MCL-1 Dependency for both methods.)”.

In the case of “RPEIWMTQGLRRLGDEINAYYAR (Exemplary Mcl-1 Binding Domain sequence) [SEQ ID NO:1]”, in the experiment with OCI-AML3 cells, the “Mcl-1 dependency percentage compared to NOXA at 100 μM” value is listed as “comparable value”.

For “RPEIWMTQGLRRLGDEINAYYARGGGYGRKKRRQRRR (profiling peptide sequence) [SEQ ID NO:15]”, in the experiment with MOLM-13 cells [1], the “activity compared to the positive control (FCCP)” value is “exceeded the activity of the positive control”.

As to ryanodine, the nonspecific dye uptake entry in the experiment on MOLM-13 cells [2] is listed as “prevented nonspecific dye uptake”.
